Results on 4 compounds are retold here after US8435553B2, “Elastin stabilization of connective tissue” (Clemson University Research Foundation (CURF), priority 2005, dated 2013).

Values joined by “and” are separate entries in the source; they are usually repeats but may differ in a detail not shown here. Equal entries are not always repeated. Where two headings read alike, the source gives them in different places.

The test system of series [1] is Rat skin fibroblasts. On the procedure: (§1) Fresh porcine aorta was treated with Glut, Glut/TA, or Glut/PGG, as described above. After thorough rinsing (3x, 1 hr. each, 100 mL ddH2O), samples were orbitally shaken at 120 rpm 37° C. for 14 days in a PBS/azide buffer, pH7.4, for extraction of soluble, cytotoxic compounds (50 mL per 6 tissues samples, each 4 mm×4 mm).
(§2) Rat skin fibroblasts were seeded onto 24-well plates (50,000 cells/well) in 1 mL DMEM supplemented with 10% FBS and 1% penicillin-streptomycin. Cells were maintained in a humidified incubator at 37° C. with 10% CO2. After 24 hours, the media was removed and replaced with one of the PBS/azide solutions diluted 10-fold in fresh media. As control, a sample was held in buffer alone (negative control) and also in a 70% ethanol solution (positive control). Effectively, 100 μL of the ‘test solution’ was added to 900 μL of media for each well (except in the case of ethanol, in which no media was added). The cells were incubated with these solutions for 2 hours and then rinsed with 1 mL PBS. Viability of the cells was then assessed using a qualitative LIVE/DEAD® staining fluorescent stain. In addition, a quantitative measurement, MTS, was used to measure the activity of cell enzymes. Specifically, the reagent was diluted 5-fold in media, then applied to the cells for 90 minutes. A portion of the resulting solutions ([…]) was transferred to a 96-well plate and read at an absorbance of 490 nm. Samples were blanked to a well containing media and MTS reagent with no cells.
Micrographs of cells introduced to LIVE/DEAD® were taken 45 minutes after exposure. Results are shown in FIGS. 6A-6E, in which living cells appear as light spots on the dark background, and dead cells appear as darker gray spots.

Series [2] relates to Rat skin fibroblasts. As for the experimental part: as §1, §2
This is another data set of the same source.

Series [3] relates to porcine aorta. Nature of the series: Tensile stress/strain test, elastic modulus of aorta. The note with it: slope of stress-strain curve between 0 and 5% strain; n = 4. As for the experimental part: To evaluate mechanical properties, aorta was cut to form dumbbell shapes approximately 40 mm in length, approximately 10 mm wide at each end, and approximately 5 mm wide at the center, with the long axis of the dumbbell shape being parallel to the circumferential direction of the aorta. Tensile properties of the samples were tested using standard stress/strain analysis on a Synergie 100 testing apparatus (MTS Systems Corporation, Eden Prairie, Minn.) operated at a constant uniaxial velocity of 0.2 mm/sec using a 10-Newton load cell to determine elastic modulus of the samples. Elastic modulus was calculated as the slope of the stress-strain curve between 0 and 5% strain.

The subject of series [4] is porcine aorta. Kind of series: Recoil of aortic rings by opening angle measurement. The following applies: aortic rings cut radially, relaxed 15 minutes; n = 5. As for the experimental part: Fresh porcine aorta was cut across the diameter into continuous rings approximately 1 cm in height as illustrated in FIG. 5A and treated with glutaraldehyde (Glut treatment). For this treatment, aortic ring samples were first fixed with 0.6% glutaraldehyde in 50 mM Hepes buffered saline, pH 7.4, overnight at room temperatures, followed by 0.2% glutaraldehyde in the same buffer for 7 days at room temperatures.
A portion of the Glut-treated rings were then treated with 0.3% pentagalloylglucose (PGG). PGG was first prepared from TA as outlined by Hagerman, et al. (Hagerman , Zhao Y., and Johanson J., “Methods for determination of condensed and hydrolyzable tannins,” Shahadi, F., Ed., Antinutrients and Phytochemicals in Foods, Wash., D.C., American Chemical Society, p. 209-222 (1997)). Specifically, TA was methanolyzed using a solution of methanol and acetate buffer. After methanolysis, the methanol was removed by rotary evaporation and replaced with ddH2O. A series of separate extractions involving diethyl ether and ethyl acetate, along with rinses of dilute methanol and ddH2O was performed to purify the PGG. The resulting precipitate was centrifuged and lyophilized to form a solid. […]
Samples were then tested for ability to recoil using opening angle measurements. […] Using these lines, the opening angles of the aortic rings were calculated. […]

The next series deals with rat abdominal aorta. Kind of series: CaCl2 chemical injury aneurysm model on rat abdominal aorta. The format is in vivo, Sprague-Dawley rats. From the text: In vivo use of the disclosed agents was examined. The aneurysm model used was based on the perivascular application of a high concentration calcium chloride (CaCl2) solution, a method originally used to induce aneurysms in rabbit carotid arteries (see, Gertz SD, Kurgan A, Eisenberg D. J Clin Invest 1988;81(3):649-656.) and has more recently been used on abdominal aorta of rodents. (See, e.g., Freestone T., et al., Arterioscler Thromb Vasc Biol 1995;15(8):1145-1151. Freestone T., et al., Arterioscler Thromb Vasc Biol 1997;17(1):10-17. Tambiah J., et al. Br J Surg 2001;88(7):935-940.) This model results in a localized mild insult to the arterial tissue. In most studies, a significant increase in aortic diameter (indicative of aneurysm formation) was observed after 3 to 6 weeks post-injury. For this example, the CaCl2-based chemical injury was performed on rat aorta.
(§3) Adult male Sprague-Dawley rats were placed under general anesthesia (2% to 3% isoflurane), allowing for a midline incision along the abdomen in order to expose the infrarenal abdominal aorta. Once exposed, the abdominal aorta was treated with 0.03% PGG solution in saline for 15 minutes using a strip (1.5 cm×0.5 cm) of presoaked 8-ply sterile cotton gauze. The area was then briefly rinsed with saline, allowing induction of chemical injury (0.5 M CaCl2, delivered with gauze for 15 minutes). As controls, rat aortas were treated with physiological saline for 15 minutes, rinsed, and then subjected to calcium chloride. After treating with CaCl2, the gauze was removed and the abdominal cavity was closed with subcutaneous suture, followed by surgical staples. The rats were anesthetized after 28 days, at which point the abdominal aorta was again exposed. Digital photographs (before PGG application at day 0, as well as after 28 days) were used to measure percent increases in diameter after the 28 day period for each rat. Aortic tissue was collected for analysis.
Following superficial examination of the aortic segments, the segments were analyzed via desmosine analysis for elastin content. […]

Series [5] is described as follows: Long-term binding of tannins to aortic tissue (extraction from explanted aorta). The format is in vivo, Sprague-Dawley rats. As for the experimental part:
as §3, with “analysis. Vessels were also analyzed to determine the long-term binding of the tannins with the tissue. Tannins were extracted from explanted aorta immediately after treatment (labeled PGG in situ on FIG. 11) and measured levels were compared to those obtained from aorta explanted 28 days following PGG treatment (labeled PGG in vivo on FIG. 11).” for “analysis.”

For a further series, the system named is pure aortic elastin. Nature of the series: Kinetics of binding of tannic acid to pure aortic elastin. Further details: species or system porcine. As for the experimental part: Ascending porcine aorta was collected fresh at a slaughterhouse and transported to the laboratory on ice. After cleaning fat and adherent tissues, aorta was cut into 2×4 mm strips and thoroughly rinsed in cold saline. Aortic elastin was purified by a sequence of extractions. Specifically, aortic strips were suspended in 100 mM sodium hydroxide (60 strips in 100 mL) and incubated for 14 hours at 37° C. with collagenase (0.5 units/mg wet tissue) in 50 mM Tris buffer, 10 mM calcium chloride, pH 8.0. The collagenase preparation was pre-adsorbed with elastin fibers to remove residual elastolytic activities. The final digestion step completely removed residual collagen, leaving pure aortic elastin.
The pure aortic elastin strips were placed in 2 mL microfuge tubes and suspended in 1.5 mL of an 8 mg % TA solution prepared in a 50 mM disodium hydrogen phosphate, 0.9% sodium chloride buffer, pH 5.5. A second group consisted of pure aortic elastin suspended in a solution containing 8 mg % TA and 16 mg % Glut in the same buffer. As controls, TA solution and the mixture of TA and Glut were incubated without elastin samples. Samples were incubated at room temperature and at defined time intervals (0, 20, 40, 60, 120, 360 minutes and 24 hours), samples were retrieved and analyzed for TA content in solution. Specifically, samples were mixed with a tungstate/phosphomolybdate reagent followed by addition of a saturated sodium carbonate solution and ddH2O. After 10 minutes at room temperature, OD at 760 nm was measured in a microplate spectrophotometer. Standard curves were constructed with TA in the range of 0-8 mg % and with TA (0-8 mg %) in mixtures with Glut (16 mg % ). Glut interference with the TA color reaction was minimal (no statistical differences found for all data points). Finally, the elastin strops were rinsed in ddH2O and lyophilized. The amount of TA bound to pure aortic elastin was calculated from the differences between initial TA concentration in solution and concentration of TA in solution after incubation with elastin strops and were expresses as micrograms of TA bound by 1 mg dry elastin. All samples were assayed in triplicate.

The next series has as its system elastase. Nature of the series: Elastase digestion of treated porcine aorta (mass loss, elastin histology). The format is biochemical. On the procedure: Fresh porcine aorta was cut into approximately 4 mm×4 mm squares and treated with 0.3% tannic acid (TA) (1.76 mM) in 50 mM HEPES […] buffered saline at pH 5.5 for 4 days at room temperature. A control sample was treated in mM Hepes buffered saline at pH5.5. Samples were then rinsed three times (1 hour each) in 100 mL ddH2O at room temperature and lyophilized to record dry weight. Samples (about 15-25 mg dry weight), both control and TA treated, were incubated with 1.0 mL pure elastase (20 units/ml, in 100 mM Tris, 1 mM CaCl2, 0.02% NaN3, pH 7.8 buffer) at 37° C. for 48 hours with orbital shaking at 650 rpm. Samples were then centrifuged (10000 rpm, 10 min. 4° C.) and supernatants retained to assess enzyme activity. Tissue samples were again rinsed three times (1 hour each) in 100 mL ddH2O at room temperature and lyophilized to record dry weight after elastase, and the percent of digested tissue was calculated. Elastin degradation was assessed by measuring mass loss (dry weight before and after elastase contact) and by preparation of histological slides stained with an elastin-specific stain (Voerhoff van Gieson stain).

In the case of `CCO` [EtOH, ethanol], in the series on Rat skin fibroblasts [1], the “cell viability after exposure to extracts” value was “essentially no viable cells”. In addition, in the series on Rat skin fibroblasts [1] (14 day tissue extract diluted 10-fold in media, 2 hours exposure), the “Viability (live/dead assay)” value was 0%. Moreover, in the series on Rat skin fibroblasts [2] (14 day tissue extract diluted 10-fold, 2 hours exposure, absorbance at 490 nm, n = 3), the “Viability (MTS assay)” value is given as 0.03.
For the compound `O=CCCCC=O` [Glut, glutaraldehyde], the “cell viability after exposure to extracts” value in the series on Rat skin fibroblasts [1] is reported as “remained viable”. For the same compound, the “Viability (live/dead assay)” value with Rat skin fibroblasts [1] (rat, 2 h) was found to be 100%. In addition, the “Viability (MTS assay)” value in the series with Rat skin fibroblasts [2] (rat, 2 h) was 1.04. In the series on porcine aorta [3], the “Mean Elastic Modulus” value came out at 1.28 kPa. The compound further had a Mean opening angle in the series with porcine aorta [4] of 35.9 degrees.
With `O=C(OC[C@H]1O[C@@H](OC(=O)c2cc(O)c(O)c(O)c2)[C@H](OC(=O)c2cc(O)c(O)c(O)c2)[C@@H](OC(=O)c2cc(O)c(O)c(O)c2)[C@@H]1OC(=O)c1cc(O)c(O)c(O)c1)c1cc(O)c(O)c(O)c1` [PGG, pentagalloylglucose], the cytotoxicity comparison entry in the series with Rat skin fibroblasts [2] is listed as “less cytotoxic than TA”. Besides, in the series on rat abdominal aorta (0.03% PGG perivascular 15 minutes before CaCl2, 28 days), the “percentage change in diameter of aortic segments” value was “less than 10%”. Besides, the “increase in diameter of aortic segments” value with rat abdominal aorta (0.03% PGG perivascular 15 minutes before CaCl2, 28 days, n=12 per group) is recorded as “about 100 μm”. Besides, the “desmosine content (elastin content)” value in the series on rat abdominal aorta (aortic segments 28 days post-injury) is given as “about 1350 pmol desmosine/mg protein”. Further, the “level of tannins extracted from tissue” value was “about 1.3 μg PGG/mg dry tissue” in series [5] (explanted 28 days following PGG treatment (PGG in vivo)) and “about 1.8 μg PGG/mg dry tissue” in series [5] (explanted immediately after treatment (PGG in situ)).
Consider `O=C(OC[C@H]1O[C@@H](OC(=O)c2cc(O)c(O)c(OC(=O)c3cc(O)c(O)c(O)c3)c2)[C@H](OC(=O)c2cc(O)c(O)c(OC(=O)c3cc(O)c(O)c(O)c3)c2)[C@@H](OC(=O)c2cc(O)c(O)c(OC(=O)c3cc(O)c(O)c(O)c3)c2)[C@@H]1OC(=O)c1cc(O)c(O)c(OC(=O)c2cc(O)c(O)c(O)c2)c1)c1cc(O)c(O)c(OC(=O)c2cc(O)c(O)c(O)c2)c1` [TA, tannic acid], for which the “TA remaining in solution, of initial TA” value was 10% with pure aortic elastin (after 6 hours incubation with elastin) and “less than 3.5%” with pure aortic elastin (at 24 hours incubation with elastin). Moreover, the “TA bound at leveling off” value in the series with pure aortic elastin (rapid binding within the first 6 hours, then plateau) is on record as “about 3 mg of TA/mg dry elastin”. The “decrease of amount of TA in solution” value in the series on pure aortic elastin (within 1 hour of incubation with elastin, 8 mg % TA, pH 5.5) is listed as “about 50%”. In the series on elastase (0.3% TA pre-treated aorta after elastase), the “elastin fibers in histology (Voerhoff van Gieson stain) after elastase” value was “fully preserved”. In the series on elastase (0.3% TA pre-treatment 4 days pH 5.5, elastase 20 units/ml, 37° C., 48 hours, n=6), the “mass lost after elastase (percent of digested tissue)” value is 4-5% and 4.33%.
